A short description of this data set: Aerosol performances by Next Generation Impactor (NGI). Type of data set: physicochemical. The protocol: The evaluation of the aerosol performances was carried out using the Next Generation Impactor (NGI) according to the conditions reported in the European Pharmacopeia 8.5th Ed 2015, par 2.9.18, pages 309-320. After aerosolization of 3 doses from the inhaler device, the NGI apparatus was disassembled and the amounts of drug deposited in the stages were recovered by washing with a 50:50 v/v water:acetonitrile mixture and then quantified by High-Performance Liquid Chromatography (HPLC). The following parameters, were calculated: i) the delivered dose which is the amount of drug delivered from the device recovered in the all parts of impactor; ii) the fine particle mass (FPM) which is the amount of delivered dose having a particle size equal to or lower than 5.0 micron; iii) the fine particle fraction (FPF) which is the ratio between the fine particle mass and the delivered dose; iv) the MMAD. The evaluation of the aerosol performances was performed as reported in Example 1. […]

The mark [1] stands for this setting: Example 4 formulation, Multidose DPI.
[2] abbreviates: Example 4 formulation, Single Dose DPI (RS01).
The mark [3] stands for this setting: Example 5 formulation, 1 mg single dose, single dose DPI RS01.
Where [4] appears, read: Example 5 formulation, 4 mg single dose, single dose DPI RS01.

Two molecules from patent US12491156B2, “Carrier particles for dry powder formulations for inhalation” (Chiesi Farmaceutici S.p.A., priority 2019, dated 2025) can be followed below.

The molecule `CCC(=O)OCC(=O)[C@@]1(OC(=O)CC)[C@@H](C)C[C@H]2[C@@H]3CCC4=CC(=O)C=C[C@]4(C)[C@@]3(Cl)[C@@H](O)C[C@@]21C` [BDP, beclometasone dipropionate, reference compound] had a Delivered Dose (Example 1 formulation (3000 μg BDP per 10 mg shot), multidose DPI of WO 2016/000983, NGI, 3 doses) of 2.16 mg. Moreover, the MMAD (Example 1 formulation, multidose DPI) is reported as 2.26 μm. Further, for the setting “Example 1 formulation, multidose DPI, particle size equal to or lower than 5.0 micron”, the Fine Particle Mass amounted to 0.87 mg. Under “Example 1 formulation, multidose DPI, ratio fine particle mass/delivered dose”, the “Fine Particle Fraction” value was 38.5%.
Regarding `COC(=O)C1=C(C)N(c2cccc(C(F)(F)F)c2)c2n[nH]c(=O)n2[C@@H]1c1ccc(C#N)cc1CC[N+](C)(C)C` [CHF 6333], the “Fine Particle Fraction” value by setting is: under setting [1], 41.7%; under setting [2], 77.1%; under setting [3], 71.6%; under setting [4], 73.9%. Further, the Fine Particle Mass runs as follows: under setting [1], 0.8 mg; under setting [2], 1.18 mg; under setting [3], 0.58 mg; under setting [4], 2.13 mg. Further, the MMAD was 2.09 μm under setting [1], 1.88 μm under setting [2], 2.15 μm under setting [3] and 1.85 μm under setting [4]. Also, the Delivered Dose (Example 4 formulation, Multidose DPI (WO 2016/000983)) is 1.92 mg; the Delivered Dose (Example 4 formulation, Single Dose DPI (RS01 of Plastiape)) is 1.53 mg; the Delivered Dose under setting [3] worked out at 0.81 mg; the Delivered Dose under setting [4] was 2.88 mg.
